We go through two molecules from patent US20250282746A1, “HALOGEN-SUBSTITUTED ISOINDOLINE COMPOUND AND USE THEREOF” (CHENGDU FENDI PHARMACEUTICAL CO., LTD., priority 2022, published 2025).

The structures appear in SMILES notation. Where two headings read alike, the source gives them in different places. Where only a bound is given, the exact number is not on record here.

The target of one test is T1, IKZF3 (Homo sapiens, UniProt Q9UKT9).
T1 construct: The whole cell lysate was prepared using a RIPA lysis buffer; endogenous in cells; host or cells: HL-60 cells
Nature of the test: Degradation of IKZF3 protein in HL-60 cells (Western blot). Type of test: cell-based. Particulars: 4 h. As for the experimental part:
[…] of DMSO and the compounds were added, and the mixture was incubated in an incubator at 5% CO2 and 37° C. for 4 h. The cells were centrifuged, and the culture medium was discarded. PBS was added for washing and then discarded. The whole cell lysate was prepared using a RIPA lysis buffer containing a protease inhibitor cocktail and a phosphatase inhibitor, and incubated on ice for 30 min. The mixture was centrifuged, and the cell debris was discarded. The whole cell lysate supernatant was collected and transferred to a fresh EP tube. Samples were prepared using a loading buffer after a BCA protein assay. The samples were incubated in a metal bath at 100° C. for 10 min. The samples were electrophoretically separated from proteins on a 4-20% precast gel (SDS-PAGE gel), transferred to a PVDF membrane, blocked with 5% NFDM/TBST for 1 h at room temperature, co-incubated overnight at 4° C. with the primary antibody, and co-incubated for 2 h at room temperature with the secondary antibody on the next day. The signals were detected on the […]™ imaging system.
(A western blot detects proteins with antibodies after separation by electrophoresis.)

The next test concerns AML-2 cells. The test is described as follows: Antiproliferative activity against various tumor cells: AML-2. The class given is cell-based. The following applies: 72 h, read-out: Antiproliferative activity IC50 AML-2.
A further test deals with MV-4-11 cells. The test is described as follows: Antiproliferative activity against MV-4-11 cells (CellTiter-Glo, 72 h). Type of test: cell-based. The following applies: Homo sapiens. In short, it runs like this: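 MV-4-11 cells in RPMI + 10% FBS plated at 5,000 cells/well and pre-incubated 24 h at 37 °C, 5% CO2. Compounds were then added (final DMSO 0.2%) and cells incubated 72 h. Viability was read by CellTiter-Glo luminescence after 30 min equilibration at room temperature.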

Another test deals with NCI-H929 cells. The test is described as follows: Antiproliferative activity against various tumor cells: NCI-H929. Type of test: cell-based. Particulars: Homo sapiens, read-out: Antiproliferative activity IC50 NCI-H929.
Another test has as its target T2, GSPT1 protein (Homo sapiens, UniProt P15170).
T2 construct: The whole cell lysate was prepared using a RIPA lysis buffer; endogenous in cells; host or cells: NB-4 cells
The test is described as follows: Degradation of GSPT1 protein in NB-4 cells (Western blot). Type of test: cell-based. The following applies: for inhibition at 1 µM: read-out: GSPT1 degradation. The method in brief: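 GSPT1 levels were read by Western blot (4-20% SDS-PAGE, PVDF, overnight primary antibody at 4 °C) on lysates of NB-4 cells.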

For the next test, the system named is MOLM-13 cells. The test is described as follows: Antiproliferative activity against various tumor cells: MOLM-13. The class given is cell-based. The following applies: Homo sapiens, read-out: Antiproliferative activity IC50 MOLM-13.
The test system of the next test is MV-4-11-Luc xenograft. Nature of the test: Efficacy in acute myeloid leukemia MV-4-11-luc xenograft mouse model. Type of test: in vivo. The following applies: 10 mg/kg orally twice daily, NSG mice. From the text:
In an in vivo efficacy study, female immunocompromised NSG mice aged 6 to 8 weeks were used and the experimental procedures started after the animals were acclimatized in the experimental environment for 7 days. The animals were housed in SPF animal rooms in individually ventilated cages (IVCs) each containing 6 mice. Human acute myeloid leukemia MV-4-11 cells expressing luciferase (MV-4-11-luc) were grafted into mice by tail vein injection (5×10^6 cells/mouse). Seven days after the cell grafting, the mice were subjected to imaging on the IVIS Lumina III small animal imaging system for grouping and administration, and tumor-bearing mice were randomized to the vehicle control group or treatment groups (6 mice/group). The compound (10 mg/kg, twice daily) was administered to the animals in each treatment group by oral gavage. The body weight was measured daily, while mean luminescence was measured after the start of treatment with the compounds or vehicle.
Indicators: The indicators were to investigate whether the tumor growth was inhibited or delayed or the tumor was cured. The tumor size was measured twice weekly using the IVIS Lumina III small animal imaging system. The tumor signals were determined by exposure photons per second. The anti-tumor efficacy of the compounds was evaluated by the tumor proliferation rate T/C (%). T/C %=TRTV/CRTV×100% (TRTV: the RTV of the treatment group; CRTV: the RTV of negative control group; RTV=Vt/V0, where V0 is the tumor signal measured at the time of grouping and administration (i.e., day 0), and Vt is the tumor signal at every measurement). According to the guidelines of the Center for Drug Evaluation, NMPA, a T/C (%) of >40% denotes the absence of efficacy, while a T/C of <40% with P<0.05 denotes the presence of efficacy.

T2 sequence (P15170 whole entry): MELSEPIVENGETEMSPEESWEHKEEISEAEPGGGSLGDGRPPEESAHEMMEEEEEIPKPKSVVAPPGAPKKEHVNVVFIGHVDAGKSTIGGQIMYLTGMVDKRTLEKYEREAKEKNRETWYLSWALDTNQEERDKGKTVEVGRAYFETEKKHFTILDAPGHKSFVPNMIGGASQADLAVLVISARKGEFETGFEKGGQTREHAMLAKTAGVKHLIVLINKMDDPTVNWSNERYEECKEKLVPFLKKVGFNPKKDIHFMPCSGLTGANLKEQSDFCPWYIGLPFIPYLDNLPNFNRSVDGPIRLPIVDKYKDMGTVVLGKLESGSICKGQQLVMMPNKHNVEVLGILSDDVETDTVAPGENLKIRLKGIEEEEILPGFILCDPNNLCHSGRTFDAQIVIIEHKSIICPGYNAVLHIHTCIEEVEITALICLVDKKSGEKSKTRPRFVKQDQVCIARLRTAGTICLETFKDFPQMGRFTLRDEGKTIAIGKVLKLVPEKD
T1 sequence (Q9UKT9 whole entry): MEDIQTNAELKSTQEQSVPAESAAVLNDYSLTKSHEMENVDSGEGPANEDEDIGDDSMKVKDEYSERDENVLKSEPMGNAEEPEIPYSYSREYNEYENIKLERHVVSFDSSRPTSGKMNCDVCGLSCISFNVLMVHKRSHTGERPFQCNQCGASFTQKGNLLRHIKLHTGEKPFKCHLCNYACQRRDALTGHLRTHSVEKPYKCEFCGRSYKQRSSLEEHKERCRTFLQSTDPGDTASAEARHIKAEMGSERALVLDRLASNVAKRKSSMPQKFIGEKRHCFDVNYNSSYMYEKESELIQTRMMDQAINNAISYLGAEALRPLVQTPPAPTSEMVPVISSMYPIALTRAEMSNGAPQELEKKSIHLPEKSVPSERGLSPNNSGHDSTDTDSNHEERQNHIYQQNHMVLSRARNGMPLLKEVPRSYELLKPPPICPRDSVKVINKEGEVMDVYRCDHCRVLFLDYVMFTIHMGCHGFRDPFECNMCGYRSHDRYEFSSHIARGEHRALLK

Consider `Cc1ccc(C(=O)NCc2ccc3c(c2F)CN(C2CCC(=O)NC2=O)C3=O)c(F)c1` (centres unmarked) [FDAB-121], for which the results for the IKZF3 degradation entry at IKZF3 (10 nM), at IKZF3 (100 nM) and at IKZF3 (1000 nM) were “D (D denotes a percentage of degradation less than 25%)”, “B (B denotes a percentage of degradation less than 800% but not less than 500%)” and “B (B denotes a percentage of degradation less than 800% but not less than 500%)”, respectively. Moreover, the IC50 fell in the range of 10 to 100 nM in the test with AML-2 cells (AML-2 cells); 1 to 10 nM in the test on MV-4-11 cells (MV4-11, MV-4-11 cells, 72 h, read-out: Antiproliferative activity IC50); 1 to 10 nM in the test with NCI-H929 cells (NCI-H929 cells, 72 h); 10 to 100 nM in the test with MOLM-13 cells (MOLM-13 cells, 72 h). The inhibition at 1 µM on GSPT1 protein (NB-4 cells, compound 1 μM, 6 h) was greater than 80%. Besides, the “T/C (%) Day 3” value in the test with MV-4-11-Luc xenograft is 0.32%. In addition, the “T/C (%) Day 7” value in the test with MV-4-11-Luc xenograft stood at 0.06%. Besides, the “T/C (%) Day 10” value in the test with MV-4-11-Luc xenograft stood at 0.02%. The “T/C (%) Day 14” value with MV-4-11-Luc xenograft amounted to 0.00%.
Turning to `O=C1CCC(N2Cc3c(ccc(CNC(=O)c4ccc(Cl)cc4)c3F)C2=O)C(=O)N1` (centres unmarked) [FDAB-48], the IKZF3 degradation entry is on record as “C (C denotes a percentage of degradation less than 500% but not less than 250%)” at IKZF3 (10 nM), “B (B denotes a percentage of degradation less than 800% but not less than 500%)” at IKZF3 (100 nM) and “A (A denotes a percentage of GSPT1 protein degradation not less than 8000)” on IKZF3 (1000 nM). For the same molecule, the IC50 with AML-2 cells is 100 to 1000 nM; in the test on MV-4-11 cells (MV4-11, 72 h, read-out: Antiproliferative activity IC50), 10 to 100 nM; with MV-4-11 cells (MV4-11, read-out: IC50 against MV-4-11 cell proliferation) it was 10.8 nM; in the test on NCI-H929 cells (NCI-H929, 72 h), 1 to 10 nM; in the test on MOLM-13 cells (MOLM-13, 72 h), 10 to 100 nM. Also, on GSPT1 protein (NB-4, 6 h), the inhibition at 1 µM was greater than 80%. The “degradation of GSPT1 protein” value on GSPT1 protein (co-incubated for 6 h with NB-4 cells) is given as 88%. Further, the “T/C (%) Day 3” value in the test on MV-4-11-Luc xenograft was found to be 0.95%. Further, in the test with MV-4-11-Luc xenograft, the “T/C (%) Day 7” value was determined as 0.22%. Also, the “T/C (%) Day 10” value with MV-4-11-Luc xenograft is on record as 0.10%. For the same molecule, in the test on MV-4-11-Luc xenograft, the “T/C (%) Day 14” value is 0.05%.
